Source: ChEMBL document CHEMBL1681651, “A broad spectrum anticancer nucleoside with selective toxicity against human colon cells in vitro” (2011)

Legend:
Type in all cases: functional
[1] = tested on: ACHN; assay: Growth inhibition of human ACHN cells after 48 hrs by […] growth inhibition assay
[2] = tested on: COLO 205; assay: Growth inhibition of human COLO205 cells after 48 hrs by […] growth inhibition assay; details: COLO 205, 48 h
[3] = tested on: EKVX; assay: Growth inhibition of human EKVX cells assessed as cell growth at 10 uM after 48 hrs by SRB assay; details: read-out: Activity
[4] = tested on: HT-29; assay: Growth inhibition of human HT-29 cells assessed as cell growth at 1 uM after 48 hrs by SRB assay; details: HT-29, 48 h, read-out: Activity
[5] = tested on: HCC 2998; assay: Growth inhibition of human HCC2998 cells assessed as cell growth at 1 uM after 48 hrs by SRB assay; details: HCC 2998, 48 h, read-out: Activity
[6] = tested on: NCI-H460; assay: Growth inhibition of human NCI-H460 cells assessed as cell growth at 10 uM after 48 hrs by SRB assay; details: NCI-H460, 48 h, read-out: Activity
[7] = tested on: EKVX; assay: Growth inhibition of human EKVX cells after 48 hrs by […] growth inhibition assay
[8] = tested on: UO-31; assay: Growth inhibition of human UO31 cells assessed as cell growth at 1 uM after 48 hrs by SRB assay; details: UO-31, 48 h, read-out: Activity
[9] = tested on: NCI-H23; assay: Growth inhibition of human NCI-H23 cells after 48 hrs by […] growth inhibition assay; details: NCI-H23, 48 h
[10] = tested on: HOP-62; assay: Growth inhibition of human HOP62 cells assessed as cell growth at 0.1 uM after 48 hrs by SRB assay; details: HOP-62, 48 h, read-out: Activity
[11] = tested on: UO-31; assay: Growth inhibition of human UO31 cells assessed as cell growth at 1 mM after 48 hrs by SRB assay; details: UO-31, 48 h, read-out: Activity
[12] = tested on: HOP-92; assay: Growth inhibition of human HOP92 cells after 48 hrs by […] growth inhibition assay; details: HOP-92, 48 h
[13] = tested on: HCC 2998; assay: Growth inhibition of human HCC2998 cells after 48 hrs by […] growth inhibition assay; details: HCC 2998, 48 h
[14] = tested on: IGROV-1; assay: Growth inhibition of human IGROV1 cells after 48 hrs by […] growth inhibition assay; details: IGROV-1, 48 h
[15] = tested on: SNB-19; assay: Growth inhibition of human SNB19 cells assessed as cell growth at 0.1 uM after 48 hrs by SRB assay; details: SNB-19, 48 h, read-out: Activity
[16] = tested on: UACC-62; assay: Growth inhibition of human UACC62 cells assessed as cell growth at 1 mM after 48 hrs by SRB assay; details: UACC-62, 48 h, read-out: Activity
[17] = tested on: MOLT-4; assay: Growth inhibition of human MOLT4 cells assessed as cell growth at 10 uM after 48 hrs by SRB assay; details: MOLT-4, 48 h, read-out: Activity
[18] = tested on: A498; assay: Growth inhibition of human A498 cells assessed as cell growth at 1 uM after 48 hrs by SRB assay; details: A498, 48 h, read-out: Activity
[19] = tested on: UACC-62; assay: Growth inhibition of human UACC62 cells assessed as cell growth at 0.1 uM after 48 hrs by SRB assay; details: UACC-62, 48 h, read-out: Activity
[20] = tested on: TK-10; assay: Growth inhibition of human TK10 cells assessed as cell growth at 10 uM after 48 hrs by SRB assay; details: TK-10, 48 h, read-out: Activity
[21] = tested on: SK-MEL-2; assay: Growth inhibition of human SK-MEL-2 cells assessed as cell growth at 100 uM after 48 hrs by SRB assay; details: SK-MEL-2, 48 h, read-out: Activity
[22] = tested on: HCT-116; assay: Growth inhibition of human HCT116 cells assessed as cell growth at 10 uM after 48 hrs by SRB assay; details: HCT-116, 48 h, read-out: Activity
[23] = tested on: HCT-15; assay: Growth inhibition of human HCT15 cells assessed as cell growth at 1 uM after 48 hrs by SRB assay; details: HCT-15, 48 h, read-out: Activity
[24] = tested on: EKVX; assay: Growth inhibition of human EKVX cells assessed as cell growth at 100 uM after 48 hrs by SRB assay; details: read-out: Activity
[25] = tested on: SN12C; assay: Growth inhibition of human SN12C cells assessed as cell growth at 0.1 uM after 48 hrs by SRB assay; details: read-out: Activity
[26] = tested on: HOP-92; assay: Growth inhibition of human HOP92 cells assessed as cell growth at 10 uM after 48 hrs by SRB assay; details: HOP-92, 48 h, read-out: Activity
[27] = tested on: SNB-19; assay: Growth inhibition of human SNB19 cells after 48 hrs by […] growth inhibition assay; details: SNB-19, 48 h
[28] = tested on: HCC 2998; assay: Growth inhibition of human HCC2998 cells assessed as cell growth at 1 mM after 48 hrs by SRB assay; details: HCC 2998, 48 h, read-out: Activity
[29] = tested on: IGROV-1; assay: Growth inhibition of human IGROV1 cells assessed as cell growth at 1 uM after 48 hrs by SRB assay; details: IGROV-1, 48 h, read-out: Activity
[30] = tested on: SK-MEL-5; assay: Growth inhibition of human SK-MEL-5 cells after 48 hrs by […] growth inhibition assay; details: SK-MEL-5, 48 h
[31] = tested on: U-251; assay: Growth inhibition of human U251 cells assessed as cell growth at 10 uM after 48 hrs by SRB assay; details: U-251, 48 h, read-out: Activity
[32] = read-out: LC50 (the source's name)
[33] = read-out: pLC50 (the source's name) (converted)

Which results are given for `CCOC(=O)C[C@H]1[C@@H](O[Si](C)(C)C(C)(C)C)[C@H](n2cnc3c(NC(=O)Nc4ccccc4)ncnc32)O[C@@H]1CNC(=O)NC`?
GI50 ([1]; read-out: GI50): 8.55 µM; CC50 [1, 32]: > 100 µM; TGI ([1]; read-out: TGI): > 100 µM; GI50 ([1]; read-out: pGI50 (converted)): 8.51 µM; CC50 [1, 33]: > 100 µM; TGI ([1]; read-out: pTGI): > 100 µM; GI50 ([2]; read-out: GI50): 3.84 µM; CC50 [2, 32]: > 100 µM; TGI ([2]; read-out: TGI): > 100 µM; GI50 ([2]; read-out: pGI50 (converted)): 3.8 µM; CC50 [2, 33]: > 100 µM; TGI ([2]; read-out: pTGI (converted)): > 100 µM; growth at 10 µM [3]: 91%; growth at 1 µM [4]: 105%; growth at 1 µM [5]: 96%; growth at 10 µM [6]: 101%; GI50 ([7]; read-out: GI50): 17.7 µM; CC50 [7, 32]: > 100 µM; TGI ([7]; read-out: TGI): > 100 µM; GI50 ([7]; read-out: pGI50 (converted)): 17.8 µM; CC50 [7, 33]: > 100 µM; TGI ([7]; read-out: pTGI (converted)): > 100 µM; growth at 1 µM [8]: 87%; GI50 ([9]; read-out: GI50): 33.3 µM; CC50 [9, 32]: > 100 µM; TGI ([9]; read-out: TGI): > 100 µM; GI50 ([9]; read-out: pGI50 (converted)): 33.1 µM; CC50 [9, 33]: > 100 µM; TGI ([9]; read-out: pTGI (converted)): > 100 µM; growth at 0.1 µM [10]: 99%; growth at 1000 µM [11]: -69%; GI50 ([12]; read-out: GI50): < 10 nM; CC50 [12, 32]: 41.2 µM; GI50 ([12]; read-out: pGI50 (converted)): < 10 nM; CC50 [12, 33]: 40.7 µM; GI50 ([13]; read-out: GI50): > 100 µM; CC50 [13, 32]: > 100 µM; TGI ([13]; read-out: TGI): > 100 µM; GI50 ([13]; read-out: pGI50 (converted)): > 100 µM; CC50 [13, 33]: > 100 µM; TGI ([13]; read-out: pTGI (converted)): > 100 µM; GI50 ([14]; read-out: GI50): 3.85 µM; CC50 [14, 32]: 79.2 µM; TGI ([14]; read-out: TGI): 18 µM; GI50 ([14]; read-out: pGI50 (converted)): 3.89 µM; CC50 [14, 33]: 79.4 µM; TGI ([14]; read-out: pTGI (converted)): 18.2 µM; growth at 0.1 µM [15]: 92%; growth at 1000 µM [16]: 60%; growth at 10 µM [17]: 76%; growth at 1 µM [18]: 92%; growth at 0.1 µM [19]: 100%; growth at 10 µM [20]: 105%; growth at 100 µM [21]: 32%; growth at 10 µM [22]: 78%; growth at 1 µM [23]: 96%; growth at 100 µM [24]: 53%; growth at 0.1 µM [25]: 101%; growth at 10 µM [26]: 12%; GI50 ([27]; read-out: GI50): 29 µM; CC50 [27, 32]: > 100 µM; TGI ([27]; read-out: TGI): > 100 µM; GI50 ([27]; read-out: pGI50 (converted)): 28.8 µM; CC50 [27, 33]: > 100 µM; TGI ([27]; read-out: pTGI): > 100 µM; growth at 1000 µM [28]: 62%; growth at 1 µM [29]: 94%; GI50 ([30]; read-out: GI50): 4.34 µM; CC50 [30, 32]: > 100 µM; TGI ([30]; read-out: TGI): > 100 µM; GI50 ([30]; read-out: pGI50 (converted)): 4.37 µM; CC50 [30, 33]: > 100 µM; TGI ([30]; read-out: pTGI (converted)): > 100 µM; growth at 10 µM [31]: 94%
